Results published in patent publication US12448391B2, “Bicyclic derivatives for treating endoparasites” (Elanco Tiergesundheit AG, priority 2019, dated 2025).

Assays:
Caenorhabditis elegans = assay: C. elegans development assay (Ce DA); details: 48 h, read-out: EC90 (motility reduction)
Experimental: Caenorhabditis elegans (Ce): C. elegans development assay (Ce DA) measures the effect of compounds on developing nematodes. Eggs of C. elegans are deposited in a 384 well plate together with food (E. coli) and the treatment formulated in DMSO. Plates are incubated at 25° C. for 48 h to allow the development of nematodes up to the L4-stage. The effect of compounds is measured as motility reduction. Efficacy is expressed in % motility reduction compared to negative controls.

D. immitis microfilariae = assay: Dog heart worm microfilariae motility assay; assay type: cell-based; details: Dirofilaria immitis, read-out: EC50 (motility inhibition)
H. contortus larvae = assay: H. contortus Larval Development Assay (Hc LDA); details: Haemonchus contortus, read-out: EC50 (motility inhibition)
Experimental: Ruminant Gastrointestinal (H. contortus Larval Development Assay (Hc LDA)):
H.c. eggs isolated from lamb fecal matter are allowed to hatch overnight. Test compounds are diluted in DMSO and added to a 96-well plate containing appropriate media. H.c. larvae are added to each well and plates are incubated for the desired time(s). Motility is assessed using an LCD camera imaging system. Percent motility inhibition values are generated relative to the average of the DMSO-only wells.

`CN(C)c1c(C(=O)NN2CCOc3ccccc32)cnc2c(-c3cc(Cl)c(F)c(Cl)c3F)c(F)ccc12` [Example 5.56, 8-(3,5-dichloro-2,4-difluoro-phenyl)-N-(2,3-dihydro-1,4-benzoxazin-4-yl)-4-(dimethylamino)-7-fluoro-quinoline-3-carboxamide] was tested, and the EC90 (Caenorhabditis elegans) was < 1 µg/mL.
With `O=C(NN1CCOc2ccccc21)c1cnc2c(-c3cc(Cl)c(F)c(Cl)c3F)c(F)ccc2c1C1CC1` [Example 5.58, 4-cyclopropyl-8-(3,5-dichloro-2,4-difluoro-phenyl)-N-(2,3-dihydro-1,4-benzoxazin-4-yl)-7-fluoro-quinoline-3-carboxamide] the EC90 (Caenorhabditis elegans) was < 1 µg/mL.
In the case of `COC(C)c1c(C(=O)NN2CCOc3ccccc32)cnc2c(-c3cc(F)cc(F)c3F)cccc12` (stereo not shown) [Example 5.55, N-(2,3-dihydro-1,4-benzoxazin-4-yl)-4-(1-methoxyethyl)-8-(2,3,5-trifluorophenyl)quinoline-3-carboxamide], the EC90 (Caenorhabditis elegans) is reported as < 1 µg/mL.
With `N#Cc1ccc2c(N3CCOCC3)c(C(=O)NN3CCOc4ccccc43)cnc2c1-c1cc(Cl)cc(Cl)c1` [Example 5.35, 7-cyano-8-(3,5-dichlorophenyl)-N-(2,3-dihydro-1,4-benzoxazin-4-yl)-4-morpholino-quinoline-3-carboxamide] the EC90 (Caenorhabditis elegans) was < 1 µg/mL.
For `O=C(NN1CCOc2ccccc21)c1cnc2c(-c3cc(F)c(F)c(F)c3)c(F)ccc2c1N1CCOCC1` [Example 5.41, N-(2,3-dihydro-1,4-benzoxazin-4-yl)-7-fluoro-4-morpholino-8-(3,4,5-trifluorophenyl)quinoline-3-carboxamide], the EC90 (Caenorhabditis elegans) was < 1 µg/mL.
For `O=C(NN1CCOc2ccccc21)c1cnc2c(-c3ccc(C(F)(F)F)cc3)cccc2c1N1CCOCC1` [Example 5.63, N-(2,3-dihydro-1,4-benzoxazin-4-yl)-4-morpholino-8-[4-(trifluoromethyl)phenyl]quinoline-3-carboxamide], the EC90 (Caenorhabditis elegans) was < 1 µg/mL.
For `O=C(NN1CCc2ccccc21)c1cnc2c(-c3cc(Cl)c(F)c(Cl)c3F)c(F)ccc2c1N1CCOCC1` [Example 5.54, 8-(3,5-dichloro-2,4-difluoro-phenyl)-7-fluoro-N-indolin-1-yl-4-morpholino-quinoline-3-carboxamide], the EC90 (Caenorhabditis elegans) was < 1 µg/mL.
`O=C(NN1CCOc2ccccc21)c1cnc2c(-c3cc(F)cc(F)c3F)cccc2c1C1CC1` [Example 5.36, 4-cyclopropyl-N-(2,3-dihydro-1,4-benzoxazin-4-yl)-8-(2,3,5-trifluorophenyl)quinoline-3-carboxamide] was tested, and the EC90 (Caenorhabditis elegans) was < 1 µg/mL.
With `O=C(NN1CCOc2ccccc21)c1cnc2c(-c3cc(Cl)cc(F)c3F)c(F)ccc2c1N1CCOCC1` [Example 5.60, 8-(5-chloro-2,3-difluoro-phenyl)-N-(2,3-dihydro-1,4-benzoxazin-4-yl)-7-fluoro-4-morpholino-quinoline-3-carboxamide] the EC90 (Caenorhabditis elegans) was < 1 µg/mL.
`O=C(NN1CCOc2ccccc21)c1cnc2c(-c3cc(Cl)cc(Cl)c3F)c(F)ccc2c1N1CCOCC1` [Example 5.47, 8-(3,5-dichloro-2-fluoro-phenyl)-N-(2,3-dihydro-1,4-benzoxazin-4-yl)-7-fluoro-4-morpholino-quinoline-3-carboxamide] was tested, and the EC90 (Caenorhabditis elegans) was < 1 µg/mL.
`O=C(NN1CCOc2ccccc21)c1cnc2c(-c3cc(Cl)c(F)c(Cl)c3F)c(F)ccc2c1N1CCOCC1` [Example 5.48, 8-(3,5-dichloro-2,4-difluoro-phenyl)-N-(2,3-dihydro-1,4-benzoxazin-4-yl)-7-fluoro-4-morpholino-quinoline-3-carboxamide] was tested, and the EC90 (Caenorhabditis elegans) was < 1 µg/mL.
`O=C(NN1CCOc2ccccc21)c1cnc2c(-c3cc(F)cc(F)c3F)cccc2c1C1CCOCC1` [Example 5.45, N-(2,3-dihydro-1,4-benzoxazin-4-yl)-4-tetrahydropyran-4-yl-8-(2,3,5-trifluorophenyl)quinoline-3-carboxamide] was tested, and the EC90 (Caenorhabditis elegans) was < 1 µg/mL.
With `O=C(NN1CCOc2ccccc21)c1cnc2c(-c3cc(C(F)(F)F)cc(C(F)(F)F)c3)c(F)ccc2c1N1CCOCC1` [Example 5.59, 8-[3,5-bis(trifluoromethyl)phenyl]-N-(2,3-dihydro-1,4-benzoxazin-4-yl)-7-fluoro-4-morpholino-quinoline-3-carboxamide] the EC90 (Caenorhabditis elegans) was < 1 µg/mL.
With `O=C(NN1CCOc2ccccc21)c1cnc2c(-c3c(F)c(F)cc(F)c3F)cccc2c1N1CCOCC1` [Example 5.57, N-(2,3-dihydro-1,4-benzoxazin-4-yl)-4-morpholino-8-(2,3,5,6-tetrafluorophenyl)quinoline-3-carboxamide] the EC90 (Caenorhabditis elegans) was < 1 µg/mL.
With `O=C(NN1CCOc2ccccc21)c1cnc2c(-c3cc(Cl)c(F)c(Cl)c3F)cccc2c1N1CCOCC1` [Example 5.23, 8-(3,5-dichloro-2,4-difluoro-phenyl)-N-(2,3-dihydro-1,4-benzoxazin-4-yl)-4-morpholino-quinoline-3-carboxamide] the EC90 (Caenorhabditis elegans) was < 1 µg/mL, the EC50 (D. immitis microfilariae) was < 0.1 µg/mL and the EC50 (H. contortus larvae) was < 1 µg/mL.
With `O=C(NN1CCOc2ccccc21)c1cnc2c(-c3cc(F)nc(F)c3F)cccc2c1N1CCOCC1` [Example 5.49, N-(2,3-dihydro-1,4-benzoxazin-4-yl)-4-morpholino-8-(2,3,6-trifluoro-4-pyridyl)quinoline-3-carboxamide] the EC90 (Caenorhabditis elegans) was < 1 µg/mL.
In the case of `O=C(NN1CCOc2ccccc21)c1cnc2c(-c3cncc(Cl)n3)cccc2c1N1CCOCC1` [Example 5.17, 8-(6-chloropyrazin-2-yl)-N-(2,3-dihydro-1,4-benzoxazin-4-yl)-4-morpholino-quinoline-3-carboxamide], the EC50 (D. immitis microfilariae) is reported as < 0.1 µg/mL and the EC50 (H. contortus larvae) is reported as < 1 µg/mL.
In the case of `CN(C)c1c(C(=O)NN2CCCc3ccccc32)cnc2c(-c3cc(Cl)cc(Cl)c3)nccc12` [Example 2.2, 8-(3,5-dichlorophenyl)-N-(3,4-dihydro-2H-quinolin-1-yl)-4-(dimethylamino)-1,7-naphthyridine-3-carboxamide], the EC50 (D. immitis microfilariae) is reported as < 0.1 µg/mL and the EC50 (H. contortus larvae) is reported as < 1 µg/mL.
For `O=C(NN1CCOc2ccccc21)c1cnc2c(-c3cc(Cl)cc(C(F)(F)F)c3)nccc2c1N1CCOCC1` [Example 2.6, 8-[3-chloro-5-(trifluoromethyl)phenyl]-N-(2,3-dihydro-1,4-benzoxazin-4-yl)-4-morpholino-1,7-naphthyridine-3-carboxamide], the EC50 (D. immitis microfilariae) was < 0.1 µg/mL and the EC50 (H. contortus larvae) was < 1 µg/mL.
`CON(C)c1c(C(=O)NN2CCOc3ccccc32)cnc2c(-c3cc(Cl)c(F)c(Cl)c3F)c(F)ccc12` [Example 5.62, 8-(3,5-dichloro-2,4-difluoro-phenyl)-N-(2,3-dihydro-1,4-benzoxazin-4-yl)-7-fluoro-4-[methoxy(methyl)amino]quinoline-3-carboxamide] was tested, and the EC90 (Caenorhabditis elegans) was < 1 µg/mL.
For `O=C(NN1CCOc2ccccc21)c1cnc2c(-c3cc(Cl)cc(Cl)c3)cccc2c1N1CCOCC1` [Example 5.3, 8-(3,5-dichlorophenyl)-N-(2,3-dihydro-1,4-benzoxazin-4-yl)-4-morpholino-quinoline-3-carboxamide], the EC50 (D. immitis microfilariae) was < 0.1 µg/mL and the EC50 (H. contortus larvae) was < 1 µg/mL.
For `O=C(NN1CCOc2ccccc21)c1cnc2c(-c3cc(Cl)cc(C(F)(F)F)c3)c(F)ccc2c1N1CCOCC1` [Example 5.61, 8-[3-chloro-5-(trifluoromethyl)phenyl]-N-(2,3-dihydro-1,4-benzoxazin-4-yl)-7-fluoro-4-morpholino-quinoline-3-carboxamide], the EC90 (Caenorhabditis elegans) was < 1 µg/mL.
